Measurements: PMC7073229, “Novel Quinoline Compounds Active in Cancer Cells through Coupled DNA Methyltransferase Inhibition and Degradation” (Cancers, 2020)

Legend:
DNMT3A protein = biological target: T1, DNMT3A protein (Homo sapiens, UniProt Q9Y6K1); experiment: Western blot of DNMT3A protein level in HCT116 cells; format: cell-based; conditions: 24 h
T1 construct: endogenous in cells; host or cells: HCT116
From the text: (§1) Cells were lysed in Laemmli buffer; subsequently the proteins were resolved by sodium dodecyl sulphate-polyacrylamide gel electrophoresis and transferred to a 0.45 µm nitrocellulose membrane (Bio-Rad Laboratories, Hercules, CA, USA). The following primary antibodies were used for immunoblotting: α-DNMT1 (Novus Biologicals, Littleton, CO, USA). α-DNMT3a (SantaCruz Bio-technologies, CA, USA) and α-GAPDH (Millipore Corp., Bedford, MA USA), used as a loading control. The immune complexes were detected with horseradish peroxidase-conjugated species-specific secondary antiserum (Bio-Rad Laboratories, Hercules, CA, USA) then by enhanced chemiluminescence reaction (Bio-Rad Laboratories, Hercules, CA, USA). Densitometric analysis of protein expression was performed by using the Fiji-Image J image processing package.

[1] = system: luciferase reporter under methylated CMV promoter in KG-1 leukemia cells; experiment: CMV-luc assay in KG-1 cells; format: cell-based; conditions: KG-1 CMV-luc, vs DMSO
Method: The assay was carried out as described by Rilova et al.. The KG-1 cell line was stably transfected with the luciferase firefly (Luc^+ from pGL3 by Promega, Madison, WI, USA) reporter gene under the control of a methylated CMV promoter (from pEGFP-N1 by Clontech) and selected for the maintenance of the methylation of CMV and luciferase expression silencing (KG-1 CMV-luc). The stably integrated KG-1 CMV-luc cells are cultivated in RPMI-1640 medium (Lonza, Strasbourg, France), supplemented with 10% FCS (Lonza, Strasbourg, France) and 0.5 mg/mL of geneticin (Sigma-Aldrich, Saint-Quentin Fallavier, France), under 5% CO2, at 37 °C and seeded at 20,000 cells per well in 96-well plates. After 5 or 24 h of incubation in the presence of compounds or the solvent DMSO, the induction of the promoter is measured by quantification of luciferase with the Brite-lite assay system (PerkinElmer, Villebon-sur-Yvette, France) according to the manufacturer’s protocol. The luminescence is measured on an EnVision Multilabel Plate Reader (PerkinElmer, Villebon-sur-Yvette, France), and the data are expressed as fold induction compared to DMSO control. The mean of 2–4 experiments and its standard error are reported.

DNMT1 protein = biological target: T2, DNMT1 protein (Homo sapiens, UniProt P26358); experiment: Western blot of DNMT1 protein level in HCT116 cells; format: cell-based; conditions: HCT116, 1 µM, 24 h
T2 construct: endogenous in cells; host or cells: HCT116
T2 sequence (P26358 whole entry): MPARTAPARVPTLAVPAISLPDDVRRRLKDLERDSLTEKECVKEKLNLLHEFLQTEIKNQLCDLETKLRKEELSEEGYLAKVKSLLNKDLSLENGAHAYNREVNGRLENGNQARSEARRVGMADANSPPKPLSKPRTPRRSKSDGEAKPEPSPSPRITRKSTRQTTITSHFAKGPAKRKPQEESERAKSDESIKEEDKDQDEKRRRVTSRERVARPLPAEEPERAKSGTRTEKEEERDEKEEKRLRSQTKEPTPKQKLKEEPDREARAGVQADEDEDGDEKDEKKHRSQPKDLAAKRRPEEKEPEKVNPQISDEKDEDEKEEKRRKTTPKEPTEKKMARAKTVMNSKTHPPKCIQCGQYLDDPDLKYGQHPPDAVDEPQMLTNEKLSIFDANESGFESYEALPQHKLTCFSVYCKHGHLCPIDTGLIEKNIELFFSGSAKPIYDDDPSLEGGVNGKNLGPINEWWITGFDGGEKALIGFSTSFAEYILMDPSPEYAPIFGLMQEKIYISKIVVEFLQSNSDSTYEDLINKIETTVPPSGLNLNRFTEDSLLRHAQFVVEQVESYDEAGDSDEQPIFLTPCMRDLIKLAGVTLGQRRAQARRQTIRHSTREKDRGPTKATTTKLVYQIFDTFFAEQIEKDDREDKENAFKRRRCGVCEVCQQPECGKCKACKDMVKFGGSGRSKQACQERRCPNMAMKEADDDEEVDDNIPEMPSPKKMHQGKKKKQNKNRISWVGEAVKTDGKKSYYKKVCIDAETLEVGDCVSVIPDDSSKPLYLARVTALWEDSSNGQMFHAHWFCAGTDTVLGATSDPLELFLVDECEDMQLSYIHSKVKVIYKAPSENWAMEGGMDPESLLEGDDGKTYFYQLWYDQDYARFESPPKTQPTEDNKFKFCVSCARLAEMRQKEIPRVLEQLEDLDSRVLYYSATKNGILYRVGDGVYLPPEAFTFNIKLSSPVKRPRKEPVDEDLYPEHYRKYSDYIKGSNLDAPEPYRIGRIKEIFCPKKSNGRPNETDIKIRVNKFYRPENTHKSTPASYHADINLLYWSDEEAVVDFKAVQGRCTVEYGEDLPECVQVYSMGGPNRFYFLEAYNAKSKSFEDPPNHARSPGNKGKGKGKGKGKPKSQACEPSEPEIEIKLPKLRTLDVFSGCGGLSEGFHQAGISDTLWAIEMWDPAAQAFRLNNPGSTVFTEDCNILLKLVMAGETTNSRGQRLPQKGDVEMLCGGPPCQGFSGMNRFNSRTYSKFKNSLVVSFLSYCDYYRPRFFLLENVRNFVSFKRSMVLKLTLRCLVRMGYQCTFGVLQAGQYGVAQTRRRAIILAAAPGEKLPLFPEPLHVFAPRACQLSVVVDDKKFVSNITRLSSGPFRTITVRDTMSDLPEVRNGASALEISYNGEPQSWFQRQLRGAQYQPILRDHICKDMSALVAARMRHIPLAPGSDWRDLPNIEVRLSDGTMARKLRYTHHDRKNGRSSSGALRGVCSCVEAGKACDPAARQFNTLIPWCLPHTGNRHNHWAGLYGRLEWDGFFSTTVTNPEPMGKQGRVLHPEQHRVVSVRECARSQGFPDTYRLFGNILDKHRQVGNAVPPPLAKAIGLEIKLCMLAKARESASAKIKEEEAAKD
From the text: as §1

[2] = biological target: T3, C-terminal catalytic domain of human DNMT3A (hDNMT3A) (Homo sapiens, UniProt Q9Y6K1); experiment: DNMT3A restriction-based fluorescence assay; format: biochemical; conditions: for EC50: mean of at least two independent experiments, read-out: Enzyme Inhibition (EC50 ± SD) hDNMT3A
T3 construct: the C-terminal catalytic domain of human DNMT3A (hDNMT3A)
T3 sequence (Q9Y6K1 634-912 limits assumed): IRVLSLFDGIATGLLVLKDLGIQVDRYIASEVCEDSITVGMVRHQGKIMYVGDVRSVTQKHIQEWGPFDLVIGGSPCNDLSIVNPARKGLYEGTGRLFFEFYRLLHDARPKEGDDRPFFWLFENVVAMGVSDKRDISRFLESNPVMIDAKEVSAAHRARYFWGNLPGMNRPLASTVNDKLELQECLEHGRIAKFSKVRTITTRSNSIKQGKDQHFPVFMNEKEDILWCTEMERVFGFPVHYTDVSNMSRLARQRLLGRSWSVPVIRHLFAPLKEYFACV
Method: DNMT3A enzyme inhibition was adapted from the restriction-based fluorescence assay protocol described in Ceccaldi et al.. Briefly, a biotin-labelled oligonucleotide at the 5’ end is hybridized to his complementary strand labelled at the 3’ end with 6-carboxyfluorescein. The DNA duplex containing only one single CpG site overlapping with a restriction site of a methylation sensitive restriction enzyme is transferred in the wells coated with avidin. The methylation reaction is performed by adding human C-terminal DNMT3A at the final concentration of 4 ng/µL in a total volume of 50 µL in the presence of the inhibitors at various concentrations and the co-substrate SAM at the final concentration of 20 µM. The plate was incubated for 1 h at 37 °C, washed, and added with the methylation sensitive restriction enzyme HpyCH4IV, incubated for 1 h further at 37 °C, washed and the fluorescence measured with a PerkinElmer Envision Multilabel Plate Reader. The data are expressed as percentage of inhibition vs. log concentration (M). Data are normalized referring to the “restriction control” (wells coated with labelled duplex not treated nor exposed to DNMT3A, but only cleaved by HpyCH4IV) as the maximum of inhibition (100%) and to the “DMSO control” (wells coated with labelled duplex but treated just with 0.1% DMSO exposed to DNMT3A and then to HpyCH4IV) as the minimum of inhibition (0%; total methylation).

PKCbeta 2 (h) = PKCbeta 2 (h) (Homo sapiens, UniProt P05771); experiment: Kinase inhibitory assay (panel); format: biochemical; conditions: read-out: % inhibition at 10 µM
Sequence of PKCbeta 2 (h) (P05771 1-673 isoform P05771-2): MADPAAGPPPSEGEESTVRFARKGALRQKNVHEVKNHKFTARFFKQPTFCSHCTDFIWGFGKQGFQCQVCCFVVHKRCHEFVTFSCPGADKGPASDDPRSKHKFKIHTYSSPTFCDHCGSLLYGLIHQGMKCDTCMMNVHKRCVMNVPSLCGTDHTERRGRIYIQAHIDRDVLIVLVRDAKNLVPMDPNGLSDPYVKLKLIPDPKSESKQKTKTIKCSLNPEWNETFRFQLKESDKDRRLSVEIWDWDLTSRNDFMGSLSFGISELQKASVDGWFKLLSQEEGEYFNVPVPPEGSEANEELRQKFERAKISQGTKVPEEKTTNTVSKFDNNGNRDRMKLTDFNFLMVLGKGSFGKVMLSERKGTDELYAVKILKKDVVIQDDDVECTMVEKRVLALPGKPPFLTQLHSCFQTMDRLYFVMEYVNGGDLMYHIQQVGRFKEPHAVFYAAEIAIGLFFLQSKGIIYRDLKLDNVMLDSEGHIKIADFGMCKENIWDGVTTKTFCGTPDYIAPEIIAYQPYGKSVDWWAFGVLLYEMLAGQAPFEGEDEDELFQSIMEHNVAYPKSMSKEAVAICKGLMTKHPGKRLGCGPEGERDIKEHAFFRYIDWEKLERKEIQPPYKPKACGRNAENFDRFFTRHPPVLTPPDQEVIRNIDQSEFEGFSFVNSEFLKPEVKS
Method: (§2) Experimental procedure of kinase inhibitory assays
(§3) The test compound, reference compound or water (control) were mixed with the enzyme (for the exact amount see table below) in the appropriate buffer. Thereafter, the reaction was initiated by adding the required amount of the appropriate substrate and of ATP, and the mixture is incubated at room temperature (variable reaction time, see table below). For control basal measurements, the enzyme was omitted from the reaction mixture. Following incubation, the reaction was stopped by adding 13 mM
(§4) EDTA. After 5 min, the proper antibody labelled with europium chelate was added. After 60 more min, the fluorescence transfer was measured at λex=337 nm, λem=620 nm and λem=665 nm using a microplate reader (Envision, Perkin Elmer). The enzyme activity was determined by d ividing the signal measured at 665 nm by that measured at 620 nm (ratio). The results are expressed as a percent inhibition of the control enzyme activity. The standard inhibitory reference compound is staurosporine when not differently indicated (see tabl e below), which has been tested in each experiment at several concentrations to obtain an inhibition curve from which its IC 50 value is calculated.
(§5) • Assay volume and format: 10 µL in 384-well plate
(§6) • Compound addition: [100x] solution in solvent then [5x] solution in water • Maximum tolerable DMSO concentration: 1%

Src kinase (h) = Src kinase (h) (Homo sapiens, UniProt P12931); experiment: Kinase inhibitory assay (panel); format: biochemical; conditions: read-out: % inhibition at 10 µM
Method: as §2, §3, §4, §5, §6

RAF-1 kinase (h) = RAF-1 kinase (h) (Homo sapiens, UniProt P04049); experiment: Kinase inhibitory assay (panel); format: biochemical; conditions: read-out: % inhibition at 10 µM
Method: as §2, §3, §4, §5, §6

IKKalpha (h) = IKKalpha (h) (Homo sapiens, UniProt O15111); experiment: Kinase inhibitory assay (panel); format: biochemical; conditions: read-out: % inhibition at 10 µM
Method: as §2, §3, §4, §5, §6

TRKA (h) = TRKA (h) (Homo sapiens, UniProt P04629); experiment: Kinase inhibitory assay (panel); format: biochemical; conditions: read-out: % inhibition at 10 µM
Method: as §2, §3, §4, §5, §6

IRK (h) (InsR) = IRK (h) (InsR) (Homo sapiens, UniProt P06213); experiment: Kinase inhibitory assay (panel); format: biochemical; conditions: read-out: % inhibition at 10 µM
Sequence of IRK (h) (InsR) (P06213 28-1382): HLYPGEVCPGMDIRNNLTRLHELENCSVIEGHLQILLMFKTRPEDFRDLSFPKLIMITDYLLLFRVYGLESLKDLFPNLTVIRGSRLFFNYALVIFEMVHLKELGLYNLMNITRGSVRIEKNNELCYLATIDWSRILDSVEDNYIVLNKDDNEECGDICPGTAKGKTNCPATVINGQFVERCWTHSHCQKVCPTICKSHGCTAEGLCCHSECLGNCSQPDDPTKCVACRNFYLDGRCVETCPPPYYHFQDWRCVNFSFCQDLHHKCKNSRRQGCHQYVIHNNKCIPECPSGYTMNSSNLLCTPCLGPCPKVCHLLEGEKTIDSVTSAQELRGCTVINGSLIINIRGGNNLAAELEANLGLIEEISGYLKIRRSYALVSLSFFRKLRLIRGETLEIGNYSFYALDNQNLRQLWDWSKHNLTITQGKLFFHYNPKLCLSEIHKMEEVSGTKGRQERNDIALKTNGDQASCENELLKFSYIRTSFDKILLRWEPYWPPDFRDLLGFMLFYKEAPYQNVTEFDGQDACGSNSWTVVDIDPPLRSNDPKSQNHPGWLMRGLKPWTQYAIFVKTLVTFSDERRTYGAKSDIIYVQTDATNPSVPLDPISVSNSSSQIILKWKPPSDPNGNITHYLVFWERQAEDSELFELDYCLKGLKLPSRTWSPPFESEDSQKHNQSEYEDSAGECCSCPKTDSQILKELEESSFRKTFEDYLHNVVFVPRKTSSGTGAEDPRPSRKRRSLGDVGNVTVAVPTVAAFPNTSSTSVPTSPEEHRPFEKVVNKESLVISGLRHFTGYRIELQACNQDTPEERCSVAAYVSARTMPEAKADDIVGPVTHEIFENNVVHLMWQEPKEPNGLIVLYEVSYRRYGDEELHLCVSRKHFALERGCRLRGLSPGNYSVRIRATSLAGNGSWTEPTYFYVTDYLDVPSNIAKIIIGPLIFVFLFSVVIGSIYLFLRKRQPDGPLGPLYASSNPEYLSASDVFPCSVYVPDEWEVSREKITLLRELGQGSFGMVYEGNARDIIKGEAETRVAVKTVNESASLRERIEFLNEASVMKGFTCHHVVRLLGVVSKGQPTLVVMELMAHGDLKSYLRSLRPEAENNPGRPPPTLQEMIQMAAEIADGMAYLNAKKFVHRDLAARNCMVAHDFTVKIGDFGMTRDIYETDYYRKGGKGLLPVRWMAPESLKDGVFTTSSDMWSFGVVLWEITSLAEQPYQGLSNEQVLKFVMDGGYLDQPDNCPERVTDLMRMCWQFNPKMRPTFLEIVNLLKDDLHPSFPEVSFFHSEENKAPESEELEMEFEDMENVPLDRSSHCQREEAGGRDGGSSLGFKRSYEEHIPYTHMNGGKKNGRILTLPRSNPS
Method: as §2, §3, §4, §5, §6

T1 sequence (Q9Y6K1 whole entry, looked up): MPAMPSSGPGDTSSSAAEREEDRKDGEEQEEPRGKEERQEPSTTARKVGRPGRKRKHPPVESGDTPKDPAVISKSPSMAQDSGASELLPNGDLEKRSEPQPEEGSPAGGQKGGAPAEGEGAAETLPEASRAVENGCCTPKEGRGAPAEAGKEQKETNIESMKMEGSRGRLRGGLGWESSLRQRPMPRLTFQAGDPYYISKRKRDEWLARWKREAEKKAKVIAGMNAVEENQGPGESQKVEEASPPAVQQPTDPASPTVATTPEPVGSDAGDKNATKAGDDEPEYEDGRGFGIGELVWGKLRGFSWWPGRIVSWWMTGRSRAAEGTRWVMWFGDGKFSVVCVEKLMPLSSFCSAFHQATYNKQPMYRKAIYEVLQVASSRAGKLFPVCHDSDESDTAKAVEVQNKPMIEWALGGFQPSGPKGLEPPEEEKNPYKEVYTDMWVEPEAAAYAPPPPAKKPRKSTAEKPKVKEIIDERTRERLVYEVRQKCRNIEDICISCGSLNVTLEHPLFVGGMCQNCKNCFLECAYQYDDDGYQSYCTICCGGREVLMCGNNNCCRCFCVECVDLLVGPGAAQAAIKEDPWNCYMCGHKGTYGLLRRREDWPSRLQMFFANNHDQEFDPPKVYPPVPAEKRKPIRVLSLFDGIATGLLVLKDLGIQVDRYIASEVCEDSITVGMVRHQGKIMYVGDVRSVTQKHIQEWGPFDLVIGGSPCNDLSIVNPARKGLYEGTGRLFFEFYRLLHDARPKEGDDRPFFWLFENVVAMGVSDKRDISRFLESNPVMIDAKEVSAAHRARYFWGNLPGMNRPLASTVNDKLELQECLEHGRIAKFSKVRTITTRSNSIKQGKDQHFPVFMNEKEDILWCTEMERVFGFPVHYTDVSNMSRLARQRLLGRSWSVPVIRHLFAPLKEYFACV

| Compound | DNMT3A protein level (western blot) (DNMT3A protein; HCT116, 0.1 µM) | DNMT3A protein level (western blot) (DNMT3A protein; HCT116, 1 µM) | DNMT3A protein level (western blot) with bortezomib (DNMT3A protein; HCT116, 1 µM, co-treated with bortezomib 10 nM) | Luciferase Expression (Fold ± SD) ([1]; 0.5 µM) | Luciferase Expression (Fold ± SD) ([1]; 1 µM) | Luciferase Expression (Fold ± SD) ([1]; 5 µM) | Luciferase Expression (Fold ± SD) ([1]; 10 µM) | Luciferase Expression (Fold ± SD) ([1]; 25 µM) | DNMT1 protein level (western blot) (DNMT1 protein) | DNMT1 protein level (western blot) with bortezomib (DNMT1 protein; co-treated with bortezomib 10 nM) | EC50 [2] | fold more potent than 4 against hDNMT3A ([2]; ratio of EC50 values vs 4) | inhibition at 10 µM (PKCbeta 2 (h)) | inhibition at 10 µM (Src kinase (h)) | inhibition at 10 µM (RAF-1 kinase (h)) | inhibition at 10 µM (IKKalpha (h)) | inhibition at 10 µM (TRKA (h)) | inhibition at 10 µM (IRK (h) (InsR)) |
| --- | --- | --- | --- | --- | --- | --- | --- | --- | --- | --- | --- | --- | --- | --- | --- | --- | --- | --- |
| O=C(Nc1cccc(NC(=O)c2ccc(Nc3ccnc4ccccc34)cc2)c1)OCc1ccccc1 [Compound 4c] | decrease | decrease | rescued | 0.96 ± 0.01 fold | 0.87 ± 0.05 fold | 40.40 ± 12.75 fold | 28.51 ± 3.39 fold | 8.07 ± 1.96 fold | decrease | rescued | 6.1 ± 1 µM | 3 fold |  |  |  |  |  |  |
| O=C(Nc1ccc(NC(=O)c2cccc(Nc3ccnc4ccccc34)c2)cc1)OCc1ccccc1 [Compound 4a] |  |  |  | 1.05 ± 0.12 fold | 1.02 ± 0.07 fold | 1.04 ± 0.16 fold | 1.45 ± 0.39 fold | 1.60 ± 1.00 fold |  |  | > 32 µM |  |  |  |  |  |  |  |
| O=C(Nc1cccc(Nc2ccnc3ccccc23)c1)c1cccc(Nc2ccnc3ccccc23)c1 [Compound 2b] |  | decrease |  |  |  |  |  |  | decrease |  |  |  | 79% | 94% | 79% | 70% | 98% | 86% |
| O=C(Nc1cccc(Nc2ccnc3ccccc23)c1)c1ccc(Nc2ccnc3ccccc23)cc1 [Compound 2c] |  |  |  |  |  |  |  |  |  |  | 5.6 ± 1 µM |  |  |  |  |  |  |  |
| O=C(Nc1ccc(Nc2ccnc3ccccc23)cc1)c1cccc(Nc2ccnc3ccccc23)c1 [Compound 2a] |  |  |  | 1.02 ± 0.04 fold | 1.05 ± 0.12 fold | 19.94 ± 4.26 fold | 4.66 ± 1.63 fold | 1.59 ± 0.59 fold |  |  | 6 ± 1 µM |  | 79% | 94% | 79% | 70% | 98% | 86% |
